The text below walks through data of US20100105031A1, “METHOD FOR PREDICTION OF THE EFFICACY OF VASCULARIZATION INHIBITOR” (Esai R & D Management Co., Ltd., priority 2005, published 2010).

In test [1] the test system is H526. Put plainly: Example 3 antitumor effect, relative tumor volume, subcutaneously transplanted model (H526). The format is in vivo, nude mouse. To be noted: FIG. 2. As to the method:
(§1) Human cancer cell lines AsPC-1 and H526 (both strains were purchased from ATCC) were cultured with RPMI1640 (containing 10% FBS) in a 5% CO2 incubator until they reached about 80% confluence. After culturing, cells from each strain were recovered with trypsin-EDTA by conventional procedures. The cells were suspended in phosphate buffer to prepare a cell suspension of 5×10^7 cells/ml. Subsequently, 0.1 ml of the cell suspension was subcutaneously transplanted on the lateral side of each nude mouse. After transplantation, when the tumor volume reached about 50-200 mm^3, administration of 5-(5-fluoro-2-oxo-1,2-dihydroindole-3-ylidenemethyl)-2,4-dimethyl-1H-pyrrole-3-carboxylic acid (2-diethylaminoethyl)amide (100 mg/kg, once a day, one week, oral administration) was started. The 5-(5-fluoro-2-oxo-1,2-dihydroindole-3-ylidenemethyl)-2,4-dimethyl-1H-pyrrole-3-carboxylic acid (2-diethylaminoethyl)amide was prepared based on the disclosure in WO 01/060814. The major axis and minor axis of tumor were measured with a Degimatic Caliper (Mitsutoyo). Then, tumor volume and relative tumor volume were calculated using the following formulas:
(§2) Tumor volume(TV)=tumor major axis(mm)×tumor minor axis^2(mm^2)/2
(§3) Relative tumor volume(RTV)=tumor volume on the measurement day/tumor volume on the starting day of administration

The subject of test [2] is AsPC-1. Kind of test: Example 3 antitumor effect, relative tumor volume, subcutaneously transplanted model (AsPC-1). To be noted: FIG. 2. The class given is in vivo, nude mouse. As to the method:
as §1, §2, §3

For test [3], the system named is H526. Put plainly: Antitumor effect in human cancer cell line subcutaneously transplanted model (H526). The format is in vivo, nude mouse. The source says:
(§4) Human cancer cell lines A375 (purchased from Dainippon Pharma Co., Ltd.), SEKI, HMV-1 (these two lines were purchased from JCRB cell bank, National Institute of Biomedical Innovation), FEM (granted from Dr. Fodstad, The Norwegian Radiumhospital Research Foundation), LOX (purchased from AntiCancer), AZ-521 (purchased from Japan Health Science Foundation), MDA-MB-468, DLD-1, HCT116, SW620, PC-3, DU145, AsPC-1, H526, MDA-MB-231, SK-Mel-2, Lovo and A431 (these 12 lines were purchased from ATCC) were cultured with RPMI1640 (containing 10% FBS) in a 5% CO2 incubator until they reached about 80% confluence. After culturing, cells from each line w ere recovered with trypsin-EDTA by conventional procedures. The cells were suspended in phosphate buffer solution to prepare a cell suspension of 1×10^8 cells/ml or 5×10^7 cells/ml. Subsequently, 0.1 ml of the cell suspension was subcutaneously transplanted on the lateral side of each nude mouse. After transplantation, when the tumor volume reached about 100-200 mm^3, administration of 4-(3-chloro-4-(cyclopropylaminocarbonyl)-aminophenoxy)-7-methoxy-6-quinolinecarboxamide was started (100 mg/kg; twice a day; one week; oral administration). […] The major axis and minor axis of tumor were measured with a Degimatic Caliper (Mitsutoyo). Then, tumor volume and ΔT/C were calculated using the following formulas: […]

In test [4] the test system is A431. Kind of test: Antitumor effect in human cancer cell line subcutaneously transplanted model (A431). The class given is in vivo, nude mouse.
Excerpt: as §4

Test [5] has as its system DLD-1. Put plainly: Antitumor effect in human cancer cell line subcutaneously transplanted model (DLD-1). The class given is in vivo, nude mouse.
Excerpt: as §4

Test [6] deals with AZ-521. Put plainly: Antitumor effect in human cancer cell line subcutaneously transplanted model (AZ-521). The class given is in vivo, nude mouse.
Excerpt: as §4

In test [7] the test system is SK-Mel-2. Kind of test: Antitumor effect in human cancer cell line subcutaneously transplanted model (SK-Mel-2). The class given is in vivo, nude mouse.
Excerpt: as §4

Test [8] relates to LOX. Kind of test: Antitumor effect in human cancer cell line subcutaneously transplanted model (LOX). The class given is in vivo, nude mouse.
Excerpt: as §4

In test [9] the test system is Lovo. Kind of test: Antitumor effect in human cancer cell line subcutaneously transplanted model (Lovo). The format is in vivo, nude mouse.
Excerpt: as §4

The subject of test [10] is PC-3. Put plainly: Antitumor effect in human cancer cell line subcutaneously transplanted model (PC-3). The format is in vivo, nude mouse.
Excerpt: as §4

Test [11] relates to MDA-MB-468. Kind of test: Antitumor effect in human cancer cell line subcutaneously transplanted model (MDA-MB-468). The format is in vivo, nude mouse.
Excerpt: as §4

Test [12] has as its system FEM. Kind of test: Antitumor effect in human cancer cell line subcutaneously transplanted model (FEM). The format is in vivo, nude mouse.
Excerpt: as §4

In test [13] the test system is SEKI. Kind of test: Antitumor effect in human cancer cell line subcutaneously transplanted model (SEKI). The class given is in vivo, nude mouse.
Excerpt: as §4

The test system of test [14] is SW620. Kind of test: Antitumor effect in human cancer cell line subcutaneously transplanted model (SW620). The format is in vivo, nude mouse.
Excerpt: as §4

Test [15] deals with MDA-MB-231. Kind of test: Antitumor effect in human cancer cell line subcutaneously transplanted model (MDA-MB-231). The format is in vivo, nude mouse.
Excerpt: as §4

The test system of test [16] is AsPC-1. Kind of test: Antitumor effect in human cancer cell line subcutaneously transplanted model (AsPC-1). The class given is in vivo, nude mouse.
Excerpt: as §4

In test [17] the test system is A375. Put plainly: Antitumor effect in human cancer cell line subcutaneously transplanted model (A375). The class given is in vivo, nude mouse.
Excerpt: as §4

Test [18] deals with HMV-1. Put plainly: Antitumor effect in human cancer cell line subcutaneously transplanted model (HMV-1). The class given is in vivo, nude mouse.
Excerpt: as §4

Test [19] has as its system HCT116. Kind of test: Antitumor effect in human cancer cell line subcutaneously transplanted model (HCT116). The format is in vivo, nude mouse.
Excerpt: as §4

Test [20] concerns DU145. Kind of test: Antitumor effect in human cancer cell line subcutaneously transplanted model (DU145). The format is in vivo, nude mouse.
Excerpt: as §4

The subject of test [21] is colorectal cancer. To be noted: clinical trials; cited from earlier work.
Setting [22] is: Compound 2 administration group, 100 mg/kg once a day, one week, oral.
[23] abbreviates: Compound 1 administration group.
The mark [24] stands for this setting: Melanoma, 100 mg/kg twice a day, one week, oral, day 8 vs day 1.
Setting [25] is: class by intensity of antitumor effect (ΔT/C).

For the compound `CCN(CC)CCNC(=O)c1c(C)[nH]c(/C=C2\C(=O)Nc3ccc(F)cc32)c1C` [Compound 2, 5-(5-fluoro-2-oxo-1,2-dihydroindole-3-ylidenemethyl)-2,4-dimethyl-1H-pyrrole-3-carboxylic acid (2-diethylaminoethyl)amide, reference compound], the tumor proliferation result in test [1] (setting [22]) is recorded as “delayed”; in test [2] (setting [22]), “rested”.

For the compound `COc1cc2nccc(Oc3ccc(NC(=O)NC4CC4)c(Cl)c3)c2cc1C(N)=O` [Compound 1, 4-(3-chloro-4-(cyclopropylaminocarbonyl)aminophenoxy)-7-methoxy-6-quinolinecarboxamide], the tumor proliferation result is given as “delayed” in [1] (setting [23]) and “rested” in test [2] (setting [23]). In addition, the ΔT/C is given as 22% in test [3] (H526, Small cell lung cancer, 100 mg/kg twice a day, one week, oral, day 8 vs day 1); −8% in test [4] (A431, Epidermoid carcinoma, 100 mg/kg twice a day, one week, oral, day 8 vs day 1); 52% in [5] (DLD-1, Large bowel cancer, 100 mg/kg twice a day, one week, oral, day 8 vs day 1); −57% in test [6] (AZ-521, Gastric cancer, 100 mg/kg twice a day, one week, oral, day 8 vs day 1); −2.5% in [7] (SK-Mel-2, Melanoma, 100 mg/kg twice a day, one week, oral, day 8 vs day 1); 42% in [8] (setting [24]). Further, the ΔT/C is reported as −11% in test [9] (Large bowel cancer, 100 mg/kg twice a day, one week, oral, day 8 vs day 1); 54% in test [10] (PC-3, Prostate cancer, 100 mg/kg twice a day, one week, oral, day 8 vs day 1); −53% in [11] (MDA-MB-468, Breast cancer, 100 mg/kg twice a day, one week, oral, day 8 vs day 1); 55% in [12] (setting [24]); 110% in [13] (setting [24]); 22% in [14] (SW620, Large bowel cancer, 100 mg/kg twice a day, one week, oral, day 8 vs day 1). Moreover, the ΔT/C in [15] (MDA-MB-231, Breast cancer, 100 mg/kg twice a day, one week, oral, day 8 vs day 1) is −33%; in test [16] (AsPC-1, Pancreatic cancer, 100 mg/kg twice a day, one week, oral, day 8 vs day 1), −8%; in [17] (A375, Melanoma, 100 mg/kg twice a day, one week, oral, day 8 vs day 1), 26%; in test [18] (HMV-1, Melanoma, 100 mg/kg twice a day, one week, oral, day 8 vs day 1) it was 19%; in [19] (HCT116, Large bowel cancer, 100 mg/kg twice a day, one week, oral, day 8 vs day 1), 17%; in test [20] (DU145, Prostate cancer, 100 mg/kg twice a day, one week, oral, day 8 vs day 1), −60%. The Classification result in [3] (H526, class by intensity of antitumor effect (ΔT/C)) was “Proliferation line (cancer cell lines which showed 10%<ΔT/C were classified as proliferation lines)”; in test [4] (A431, class by intensity of antitumor effect (ΔT/C)), “Rest line (cancer cell lines which showed −30%<ΔT/C<10% were classified as rest lines)”; in [5] (DLD-1, class by intensity of antitumor effect (ΔT/C)), “Proliferation line (cancer cell lines which showed 10%<ΔT/C were classified as proliferation lines)”; in [6] (AZ-521, class by intensity of antitumor effect (ΔT/C)), “Shrinkage line (Cancer cell lines which showed ΔT/C<−30% were classified as shrinkage lines)”; in [7] (SK-Mel-2, class by intensity of antitumor effect (ΔT/C)), “Rest line (cancer cell lines which showed −30%<ΔT/C<10% were classified as rest lines)”; in test [8] (setting [25]) it was “Proliferation line (cancer cell lines which showed 10%<ΔT/C were classified as proliferation lines)”. Besides, the Classification entry in test [9] (setting [25]) is on record as “Rest line (cancer cell lines which showed −30%<ΔT/C<10% were classified as rest lines)”; in [10] (PC-3, class by intensity of antitumor effect (ΔT/C)), “Proliferation line (cancer cell lines which showed 10%<ΔT/C were classified as proliferation lines)”; in [11] (MDA-MB-468, class by intensity of antitumor effect (ΔT/C)) it was “Shrinkage line (Cancer cell lines which showed ΔT/C<−30% were classified as shrinkage lines)”; in test [12] (setting [25]), “Proliferation line (cancer cell lines which showed 10%<ΔT/C were classified as proliferation lines)”; in [13] (setting [25]), “Proliferation line (cancer cell lines which showed 10%<ΔT/C were classified as proliferation lines)”; in test [14] (SW620, class by intensity of antitumor effect (ΔT/C)), “Proliferation line (cancer cell lines which showed 10%<ΔT/C were classified as proliferation lines)”. In addition, the Classification result is reported as “Shrinkage line (Cancer cell lines which showed ΔT/C<−30% were classified as shrinkage lines)” in test [15] (MDA-MB-231, class by intensity of antitumor effect (ΔT/C)); “Rest line (cancer cell lines which showed −30%<ΔT/C<10% were classified as rest lines)” in test [16] (AsPC-1, class by intensity of antitumor effect (ΔT/C)); “Proliferation line (cancer cell lines which showed 10%<ΔT/C were classified as proliferation lines)” in test [17] (A375, class by intensity of antitumor effect (ΔT/C)); “Proliferation line (cancer cell lines which showed 10%<ΔT/C were classified as proliferation lines)” in test [18] (HMV-1, class by intensity of antitumor effect (ΔT/C)); “Proliferation line (cancer cell lines which showed 10%<ΔT/C were classified as proliferation lines)” in test [19] (HCT116, class by intensity of antitumor effect (ΔT/C)); “Shrinkage line (Cancer cell lines which showed ΔT/C<−30% were classified as shrinkage lines)” in test [20] (DU145, class by intensity of antitumor effect (ΔT/C)).

For “bevacizumab: human anti-VEGF monoclonal antibody sold by Genentech as Avastin”, the antitumor effect result in [21] is on record as “shown an antitumor effect”.
